#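 Cells were grown in 96-well plates and exposed to each compound for 48 hours at five concentrations; endpoints were interpolated linearly between bracketing concentrations, or set to the highest concentration if not reached. TGI: concentration producing complete growth inhibition.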
# Columns and labels:
# Test in all cases: NCI anticancer screen, dose series, 48 h
# HCT-15 colon = test system: HCT-15 colon
# M14 melanoma = test system: M14 melanoma
# SK-MEL-5 melanoma = test system: SK-MEL-5 melanoma
# SF-295 CNS = test system: SF-295 CNS
# COLO 205 colon = test system: COLO 205 colon
# SK-MEL-28 melanoma = test system: SK-MEL-28 melanoma
# EKVX NSCLC = test system: EKVX NSCLC
# CCRF-CEM leukemia = test system: CCRF-CEM leukemia
# MDA-MB-435 = test system: MDA-MB-435
# DU-145 prostate = test system: DU-145 prostate
# SNB-75 CNS = test system: SNB-75 CNS
# SK-MEL-2 melanoma = test system: SK-MEL-2 melanoma
# HCC-2998 colon = test system: HCC-2998 colon
# HOP-92 NSCLC = test system: HOP-92 NSCLC
# SF-268 CNS = test system: SF-268 CNS
SMILES,TGI (HCT-15 colon) [µM],TGI (M14 melanoma) [µM],TGI (SK-MEL-5 melanoma) [µM],TGI (SF-295 CNS) [µM],TGI (COLO 205 colon) [µM],TGI (SK-MEL-28 melanoma) [µM],TGI (EKVX NSCLC) [µM],TGI (CCRF-CEM leukemia) [µM],TGI (MDA-MB-435) [µM],TGI (DU-145 prostate) [µM],TGI (SNB-75 CNS) [µM],TGI (SK-MEL-2 melanoma) [µM],TGI (HCC-2998 colon) [µM],TGI (HOP-92 NSCLC) [µM],TGI (SF-268 CNS) [µM]
CCOC(=O)CCC(NC(=O)OCc1ccccc1)C(=O)NC(CCC(=O)OCC)C(=O)NC(CCC(=O)OCC)C(=O)NC(CCC(=O)OCC)C(=O)NC(CCC(=O)OCC)C(=O)OCC (centres undefined),> 100,> 100,> 100,> 100,> 100,> 100,> 100,> 100,> 100,> 100,> 100,> 100,–,–,–
C/C(=N\Nc1ccc([N+](=O)[O-])cc1)C(=O)N(C)Nc1ccccc1,> 100,> 100,–,> 100,> 100,–,> 100,> 100,–,–,> 100,> 100,> 100,> 100,–
O=[N+]([O-])C1(C2([N+](=O)[O-])CCCC2)CCCC1,> 100,> 100,> 100,–,> 100,> 100,> 100,> 100,> 100,> 100,> 100,> 100,> 100,–,> 100
CCOC(=O)c1c(SCCO)n(-c2ccccc2)c(=S)n(-c2ccccc2)c1=O,> 100,> 100,> 100,> 100,> 100,> 100,> 100,> 100,> 100,> 100,> 100,> 100,–,> 100,> 100
O/N=C\c1cc(O)c(O)c(/C=N/O)c1,> 100,> 100,> 100,> 100,> 100,> 100,> 100,> 100,> 100,> 100,> 100,> 100,–,> 100,> 100
CC(C)(C)/C(O)=C\c1nc2cc(C(F)(F)F)ccc2[nH]c1=O,> 100,> 100,> 100,> 100,> 100,> 100,> 100,81.2,> 100,> 100,> 100,> 100,–,> 100,> 100
Cc1ccc2[nH]c3c(C)c4ccncc4c(C)c3c2c1,2.22,3.29,2.92,2.32,2.23,3.47,2.5,3.74,–,–,3.17,2.63,2.87,3.09,2.11
COc1cc2c(c(OC)c1OC)C(=O)CC2N (centres undefined),> 100,> 100,> 100,> 100,> 100,> 100,> 100,> 100,> 100,–,> 100,> 100,> 100,> 100,> 100

# From PubChem BioAssay (NCI)
